Assay [1] deals with endogenous calnexin S-acylation in HEK293T cells. Briefly: mPEG-click S-acylation of endogenous calnexin in HEK293T cells. The format is cell-based, human. The conditions noted are these: 25 and 50 μM, 4 h pretreatment + 4 h labeling. From the text:
Finally, we tested whether TTZ-1 and TTZ-2 were able to block the S-acylation of endogenous proteins in the absence of zDHHC enzyme overexpression. In order to detect the S-acylation of endogenous proteins, we used mPEG-click, a technique that we developed recently ([49]) that is better suited for the click chemistry–based analysis of S-acylation of endogenously expressed proteins. In this assay, cells are labeled with either palmitate (C16:0), or C16:0-azide, lysed, and then subjected to click chemistry with alkyne-mPEG 5K. The addition of mPEG 5K moieties to S-acylated proteins increases their apparent molecular weight, which can be detected directly by immunoblotting. HEK293T cells were pretreated for 4 h with either TTZ-1 or TTZ-2 at 25 and 50 μM and then labeled with fatty acids for another 4 h in the presence of the compounds. We first assessed the S-acylation of endogenous SNAP23 as it is a close relative of SNAP25 (SNAP25 is not expressed in the non-neuronal HEK293T cell line) ([50], [51]). […]
Figure 10 Activity of TTZ-1 and TTZ-2 against the S-acylation of endogenous proteins in mammalian cells. […] The data were quantified, and the graphs below each set of membranes show mean ± SEM of normalized S-acylation of either endogenous SNAP23 (A) or endogenous calnexin (B). […]

Another assay addresses T1, purified human zDHHC2 (Homo sapiens, UniProt Q9UIJ5).
T1 construct: StrepII (C); made in house; host or cells: Sf9 TriEX insect cells, baculovirus
T1 sequence (Q9UIJ5 1-367): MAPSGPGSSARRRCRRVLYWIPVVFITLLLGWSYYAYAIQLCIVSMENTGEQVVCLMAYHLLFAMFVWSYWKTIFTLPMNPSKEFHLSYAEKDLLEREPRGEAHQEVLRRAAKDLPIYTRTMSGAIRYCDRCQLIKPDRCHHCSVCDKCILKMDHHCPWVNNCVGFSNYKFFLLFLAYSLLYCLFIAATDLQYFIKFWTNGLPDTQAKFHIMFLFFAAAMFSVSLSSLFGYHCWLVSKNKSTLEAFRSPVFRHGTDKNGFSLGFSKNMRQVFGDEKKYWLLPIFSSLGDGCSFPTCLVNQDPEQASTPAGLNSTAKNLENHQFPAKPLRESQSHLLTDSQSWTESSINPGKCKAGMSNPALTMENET
Briefly: In vitro SNAP25 S-acylation by purified zDHHC2, copper-free click chemistry, ELISA. It counts as biochemical. The following applies: for inhibition at 3 µM / inhibition at 10 µM: in vitro ELISA, UoS, read-out: zDHHC2-mediated SNAP25 S-acylation inhibition (%); for inhibition at 3 µM: compound 3 μM; for inhibition at 10 µM: compound 10 μM; for IC50 / SNAP25 S-acylation by purified zDHHC2, SDS-PAGE and Western blotting: in vitro; for IC50: ELISA, concentrations 0.3 to 30 μM, read-out: zDHHC2-mediated substrate (SNAP25) S-acylation IC50 (95 CI); for SNAP25 S-acylation by purified zDHHC2, SDS-PAGE and Western blotting: selected samples at 3 or 10 μM. (In general: ELISA stands for enzyme-linked immunosorbent assay.)

SMILES strings stand for the structures.

As for `CCCCCCCOc1ccc(C(=O)Nc2cccc3c2OC(c2nnn[nH]2)CN3)cc1` (stereo not shown) [TTZ-1, N-(2-(1H-Tetrazol-5-yl)-3,4-dihydro-2H-benzo[b][1,4]oxazin-8-yl)-4-(heptyloxy)benzamide], the “S-acylation of endogenous calnexin” value in assay [1] is “decreased”. Further, at purified human zDHHC2, the inhibition – broadly, the percentage by which the read-out fell short of the control – at 3 µM was 30%; the inhibition at 10 µM was 77%; the IC50 (in general, the concentration that gives 50% inhibition) came out at 4.7 µM; the “SNAP25 S-acylation by purified zDHHC2, SDS-PAGE and Western blotting” value is reported as “confirmed the inhibitory activity”.

As for `O=C(Nc1cccc2c1OC(c1nnn[nH]1)CN2)c1ccc(OCCCCc2ccccc2)cc1` (stereo not shown) [TTZ-2, N-(2-(1H-Tetrazol-5-yl)-3,4-dihydro-2H-benzo[b][1,4]oxazin-8-yl)-4-(4-phenylbutoxy)benzamide], the “S-acylation of endogenous calnexin” value in assay [1] is “decreased”. Moreover, at purified human zDHHC2, the inhibition at 3 µM is 64%; the inhibition at 10 µM came out at 81%; the IC50 stood at 1.3 µM; the “SNAP25 S-acylation by purified zDHHC2, SDS-PAGE and Western blotting” value is “confirmed the inhibitory activity”.

(Values after publication PMC9558053, “Development of a novel high-throughput screen for the identification of new inhibitors of protein S-acylation” (The Journal of Biological Chemistry, 2022).)
